Data: ChEMBL document CHEMBL4152357, “Efflux pump inhibition by 11H-pyrido[2,1-b]quinazolin-11-one analogues in mycobacteria” (Bioorg Med Chem, 2018)
Values after ≈ are worked out from the molar mass of the structure shown. Active and inactive are the calls of the source. No cut-off for these calls is given here.

Assays:
CC-1 = experiment: Cytotoxicity against rat CC1 cells assessed as decrease in cell survival at 200 ug/ml after 24 hrs by Alamar blue reduction assay relative to control; type: cell-based; conditions: cc-1, 24 h
[1] = biological target: T1, Multidrug efflux pump LfrA (Mycobacterium smegmatis (strain ATCC 700084 / mc(2)155)) (UniProt A0R5K5); experiment: Inhibition of LfrA in Mycobacterium smegmatis MC2 155 ATCC 700084 assessed as potentiation of EtBr-induced bactericidal activity at 100 ug/ml after 24 hrs; conditions: Mycolicibacterium smegmatis MC2 155
T1 sequence (whole entry): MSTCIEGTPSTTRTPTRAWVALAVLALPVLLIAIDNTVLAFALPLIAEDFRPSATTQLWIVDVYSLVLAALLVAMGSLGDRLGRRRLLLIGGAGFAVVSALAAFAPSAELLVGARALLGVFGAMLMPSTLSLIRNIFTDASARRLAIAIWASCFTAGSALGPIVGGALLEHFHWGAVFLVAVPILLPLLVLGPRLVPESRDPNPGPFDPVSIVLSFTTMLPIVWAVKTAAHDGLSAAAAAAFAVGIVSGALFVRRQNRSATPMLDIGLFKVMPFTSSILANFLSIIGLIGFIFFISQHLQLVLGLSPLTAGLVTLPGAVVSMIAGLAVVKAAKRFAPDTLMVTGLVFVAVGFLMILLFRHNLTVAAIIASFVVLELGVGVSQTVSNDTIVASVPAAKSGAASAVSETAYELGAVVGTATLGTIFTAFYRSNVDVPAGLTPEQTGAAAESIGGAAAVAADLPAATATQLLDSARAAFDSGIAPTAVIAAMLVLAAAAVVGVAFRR

[2] = biological target: T1, Multidrug efflux pump LfrA (Mycobacterium smegmatis (strain ATCC 700084 / mc(2)155)); experiment: Inhibition of LfrA in Mycobacterium smegmatis MC2 155 ATCC 700084 assessed as decrease in EtBr MIC at 100 ug/ml after 72 hrs by MTT assay relative to control; conditions: Mycolicibacterium smegmatis MC2 155
[3] = Cytotoxicity against rat CC1 cells assessed as cell survival at 100 ug/ml after 24 hrs by Alamar blue reduction assay relative to control; type: cell-based, CC-1; conditions: read-out: Survival
[4] = test system: Mycolicibacterium smegmatis; experiment: Growth inhibition of Mycobacterium smegmatis MC2 155 ATCC 700084 after 72 hrs by MTT assay; type: organism-based
[5] = biological target: T1, Multidrug efflux pump LfrA (Mycobacterium smegmatis (strain ATCC 700084 / mc(2)155)); experiment: Inhibition of LfrA in Mycobacterium smegmatis MC2 155 ATCC 700084 assessed as increase in EtBr accumulation at 25 ug/ml measured every 5 mins for 35 mins by fluorometric analysis; conditions: Mycolicibacterium smegmatis MC2 155
[6] = biological target: T1, Multidrug efflux pump LfrA (Mycobacterium smegmatis (strain ATCC 700084 / mc(2)155)); experiment: Inhibition of LfrA in Mycobacterium smegmatis MC2 155 ATCC 700084 assessed as increase in EtBr accumulation at 50 ug/ml measured every 5 mins for 35 mins by fluorometric analysis; conditions: Mycolicibacterium smegmatis MC2 155
[7] = Cytotoxicity against rat CC1 cells assessed as cell survival at 50 ug/ml after 24 hrs by Alamar blue reduction assay relative to control; type: cell-based, CC-1; conditions: read-out: Survival
[8] = biological target: T1, Multidrug efflux pump LfrA (Mycobacterium smegmatis (strain ATCC 700084 / mc(2)155)); experiment: Inhibition of LfrA in Mycobacterium smegmatis MC2 155 ATCC 700084 assessed as decrease in norfloxacin MIC at 12.5 ug/ml after 72 hrs by MTT assay relative to control; conditions: Mycolicibacterium smegmatis MC2 155
[9] = biological target: T1, Multidrug efflux pump LfrA (Mycobacterium smegmatis (strain ATCC 700084 / mc(2)155)); experiment: Inhibition of LfrA in Mycobacterium smegmatis MC2 155 ATCC 700084 assessed as potentiation of EtBr-induced bactericidal activity at 100 ug/ml after 48 hrs; conditions: Mycolicibacterium smegmatis MC2 155
[10] = biological target: T1, Multidrug efflux pump LfrA (Mycobacterium smegmatis (strain ATCC 700084 / mc(2)155)); experiment: Inhibition of LfrA in Mycobacterium smegmatis MC2 155 ATCC 700084 assessed as increase in norfloxacin accumulation at 25 ug/ml measured every 5 mins for 35 mins by fluorometric analysis; conditions: Mycolicibacterium smegmatis MC2 155
[11] = biological target: T1, Multidrug efflux pump LfrA (Mycobacterium smegmatis (strain ATCC 700084 / mc(2)155)); experiment: Inhibition of LfrA in Mycobacterium smegmatis MC2 155 ATCC 700084 assessed as decrease in norfloxacin MIC at 25 ug/ml after 72 hrs by MTT assay relative to control; conditions: Mycolicibacterium smegmatis MC2 155
[12] = biological target: T1, Multidrug efflux pump LfrA (Mycobacterium smegmatis (strain ATCC 700084 / mc(2)155)); experiment: Inhibition of LfrA in Mycobacterium smegmatis MC2 155 ATCC 700084 assessed as potentiation of norfloxacin-induced bactericidal activity at 25 ug/ml after 24 to 48 hrs; conditions: Mycolicibacterium smegmatis MC2 155
[13] = biological target: T1, Multidrug efflux pump LfrA (Mycobacterium smegmatis (strain ATCC 700084 / mc(2)155)); experiment: Inhibition of LfrA in Mycobacterium smegmatis MC2 155 ATCC 700084 assessed as decrease in EtBr MIC at 0.78 ug/ml after 72 hrs by MTT assay relative to control; conditions: Mycolicibacterium smegmatis MC2 155
[14] = biological target: T1, Multidrug efflux pump LfrA (Mycobacterium smegmatis (strain ATCC 700084 / mc(2)155)); experiment: Inhibition of LfrA in Mycobacterium smegmatis MC2 155 ATCC 700084 assessed as decrease in norfloxacin MIC at 50 ug/ml after 72 hrs by MTT assay relative to control; conditions: Mycolicibacterium smegmatis MC2 155
[15] = biological target: T1, Multidrug efflux pump LfrA (Mycobacterium smegmatis (strain ATCC 700084 / mc(2)155)); experiment: Inhibition of LfrA in Mycobacterium smegmatis MC2 155 ATCC 700084 assessed as potentiation of norfloxacin-induced bactericidal activity at 100 ug/ml after 48 hrs; conditions: Mycolicibacterium smegmatis MC2 155
[16] = biological target: T1, Multidrug efflux pump LfrA (Mycobacterium smegmatis (strain ATCC 700084 / mc(2)155)); experiment: Inhibition of LfrA in Mycobacterium smegmatis MC2 155 ATCC 700084 assessed as decrease in norfloxacin MIC at 100 ug/ml after 72 hrs by MTT assay relative to control; conditions: Mycolicibacterium smegmatis MC2 155

Structure (SMILES)	Activity (CC-1)	inhibition [1]	fold change (FC) [2]	fractional inhibitory concentration index (FICI) [2]	viability at 24 h, 100 ug/ml [3]	MIC [4]	inhibition [5]	Activity [6]	viability at 24 h, 50 ug/ml [7]	fold change (FC) [8]	fractional inhibitory concentration index (FICI) [8]	fold change (FC) [11]	fractional inhibitory concentration index (FICI) [11]	further results
Cc1ccn2c(=O)c3cccc(F)c3nc2c1	> 50%	Active	8	0.62	43%	200 µg/mL (≈ 876 µM)	Active	> 150 FU	96%	4	0.3			
O=c1c2ccccc2nc2ccccn12	> 50%	Active	8	0.62	70%	200 µg/mL (≈ 1020 µM)	inactive	< 150 FU	86%			8	0.25	inhibition [9]: Active; Activity [10]: 2000 FU; Activity (deltalog10CFU/ml) [12]: > 3
O=c1c2ccc(F)cc2nc2ccccn12						200 µg/mL (≈ 934 µM)				2	0.56			
Cc1cccn2c(=O)c3cc(Br)ccc3nc12						200 µg/mL (≈ 692 µM)						4	0.37	fold change (FC) [13]: 2; fractional inhibitory concentration index (FICI) [13]: 0.3
Cc1ccn2c(=O)c3cc(Br)ccc3nc2c1						200 µg/mL (≈ 692 µM)						4	0.37	fold change (FC) [13]: 2; fractional inhibitory concentration index (FICI) [13]: 0.3
Cc1cccn2c(=O)c3ccccc3nc12	> 50%	Active	8	0.62	81%	200 µg/mL (≈ 951 µM)	Active	250 FU	45%	4	0.3			
O=c1c2cccc(Cl)c2nc2c(Cl)cccn12	> 50%		16	0.56	92%	200 µg/mL (≈ 754 µM)	Active	> 355 FU	95%					Activity (deltalog10CFU/ml) [9]: 7; fold change (FC) [14]: 4; fractional inhibitory concentration index (FICI) [14]: 0.55
COc1ccc(CCN(C)CCCC(C#N)(c2ccc(OC)c(OC)c2)C(C)C)cc1OC (centres undefined) [VERAPAMIL]						300 µg/mL (≈ 660 µM)								
O=c1c2ccc(Cl)cc2nc2ccccn12	> 50%	Active	8	0.62	70%	200 µg/mL (≈ 867 µM)	Active	248 FU	80%					Activity [10]: 18000 FU; Activity (deltalog10CFU/ml) [15]: 4; fold change (FC) [16]: 8; fractional inhibitory concentration index (FICI) [16]: 0.62
